# Reference: patent US10774069B2, “Crystalline forms of a lysyl oxidase-like 2 inhibitor and methods of making” (PHARMAKEA, INC., priority 2016, dated 2020)
# “Also recorded” adds a separate entry of the source. Where a name gives a salt, the structure may show the parent alone. Read-outs that look alike come from different tables or passages of the source.
# How the values were obtained:
# [1] = Experimental: After each addition of solvent, the system was shaken gently for 10 minutes at 50° C. and then allowed to stand at room temperature for 5 min before the addition of a new aliquot of solvent. After the assessment was completed, any suspensions obtained were matured and clear solutions were cooled at 5° C.
# Supernatants from maturation were allowed to slowly evaporate at ambient conditions.
# [2] = Solid form storage stability at elevated temperature/humidity; type: physicochemical
# Experimental: All retrieved solids from the crystallisation attempts were stored at 40° C. and 75% RH.
# [3] = target: T1, LOXL2 (Homo sapiens (Human), UniProt Q9Y4K0); assay: Human LOXL2 CCM Assay (Amplex Red amine oxidase activity); type: biochemical; settings: concentrated conditioned media from CHO cells expressing human LOXL2; 2 h at 37° C.
# Experimental: Human LOXL2/CHO and human LOX/HEK stable cell lines were cultured under normal growth conditions in 15 cm tissue culture plates until cells were ˜80% confluent. Cells were then washed with PBS before the addition of 25-30 mL serum-free media (Phenol red-free DMEM/F12 mix w/glutamax containing pen/strep, 10-100 μM CuCl2±0.1% BSA). Cells were incubated at 37° C., 5% CO2 in serum-free media for 40-48 hours before the conditioned media was removed and centrifuged at 2000 rpm for 5 min at 4° C. to pellet cells/debris. The media was concentrated 10-20× using 10-30 MWCO centriprep columns according to the manufacturer's instructions (EMD Millipore, Billerica, Mass.) before aliquoting and storing at −80° C.
# LOXL2 amine oxidase activity was evaluated by measuring Amplex Red fluorescence using 10-20× concentrated conditioned media (non BSA-containing) from CHO cells stably expressing human LOXL2. […] After the 2 h incubation, 5 μL of 10 mM 1,5-Diaminopentane (DAP) diluted in Assay Buffer and 10 μL of Amplex Red Mix (8.5 μL Assay Buffer+0.5 μL of 10 mM Amplex Red+1 μL of 500 U/ml Horseradish Peroxidase) were added and the plate mixed and immediately placed on the FlexStation for fluorescence measurements. Fluorescence was read in kinetic mode every 2 min for 0.5-1 hour at excitation=544 and emission=590. The amine oxidase activity was calculated from the slope of the linear portion of the curve. […]
# [4] = Stability studies (accelerated and ICH); type: physicochemical
# Experimental: The compounds were assayed according to appearance, purity, related Substances, chiral purity, moisture, DSC, and XRPD
# [5] = Forced degradation study; type: physicochemical
# [6] = Clear point / cloud point in IPA:water (Crystal 16); type: physicochemical; settings: mixture of Forms 1 and 4
# Experimental: The samples were then cooled from 70 back to −8° C. at the same rate. The clear point upon heating (at 100% transmission) and the cloud point upon re-cooling (<100% transmission) were recorded using the Crystal 16 instrument and the data is shown in Table 17. XRPD analysis was performed on all solids obtained post cooling.
# [7] = Preliminary free base solubility assessment of Compound I; type: physicochemical; settings: organic solvent or mixture, thermodynamic from solid
# Experimental: After each addition of solvent, the system was shaken at 50° C. for 10 min and then allowed to stand at room temperature for 5 min before the addition of a new aliquot of solvent.
# [8] = target: T1, LOXL2; assay: In vitro assays, potency of enantiomers; type: biochemical
# [9] = Solid form storage stability at elevated temperature/humidity; type: physicochemical; remark: listed apart in the source
# [10] = physchem; settings: 25 °C, water, thermodynamic from solid
# [11] = Aqueous and organic solubility of Form 1 of Compound 2; type: physicochemical
# [12] = Gravimetric Vapor Sorption (GVS); type: physicochemical; settings: 0 to 90% RH
# Description: Gravimetric Vapor Sorption (GVS) isotherms were obtained using an SMS DVS Intrinsic moisture sorption analyser, controlled by DVS Intrinsic Control software v1.0.1.2 (or v 1.0.1.3), over a range of 0 to 90% relative humidity (RH).
# T1 sequence (Q9Y4K0 26-774): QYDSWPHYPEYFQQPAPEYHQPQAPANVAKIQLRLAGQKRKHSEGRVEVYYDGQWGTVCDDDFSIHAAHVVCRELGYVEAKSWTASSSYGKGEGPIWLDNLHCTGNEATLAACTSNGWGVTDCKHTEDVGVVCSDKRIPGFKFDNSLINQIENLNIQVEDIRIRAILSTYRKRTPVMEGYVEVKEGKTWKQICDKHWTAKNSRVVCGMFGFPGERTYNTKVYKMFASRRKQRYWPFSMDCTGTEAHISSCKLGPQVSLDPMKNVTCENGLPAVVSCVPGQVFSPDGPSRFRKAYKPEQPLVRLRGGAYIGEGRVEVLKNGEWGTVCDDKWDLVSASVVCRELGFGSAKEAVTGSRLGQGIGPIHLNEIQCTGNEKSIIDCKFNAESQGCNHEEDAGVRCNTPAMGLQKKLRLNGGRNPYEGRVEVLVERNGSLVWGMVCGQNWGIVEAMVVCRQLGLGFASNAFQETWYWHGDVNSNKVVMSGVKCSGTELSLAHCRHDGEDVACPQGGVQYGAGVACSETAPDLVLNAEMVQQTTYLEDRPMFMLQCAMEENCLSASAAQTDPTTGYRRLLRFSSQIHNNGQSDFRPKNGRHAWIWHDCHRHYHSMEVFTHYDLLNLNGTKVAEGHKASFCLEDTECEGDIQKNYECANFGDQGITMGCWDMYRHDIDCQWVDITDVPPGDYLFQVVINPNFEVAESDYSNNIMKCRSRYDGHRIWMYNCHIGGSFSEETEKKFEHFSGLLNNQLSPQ
compound,measurement,setting,value
Cl.NCc1cc(Oc2cccc(C(=O)N3C[C@@H](O)[C@H](F)C3)c2)nc(C(F)(F)F)c1 [Amorphous Compound 1],solubility,[1],200 − 100
same,Behaviour at 40° C./75% RH,[2]; 40° C./75% RH,deliquesces
same,"7 days storage @ 40° C./75% RH, appearance",[2]; 40° C./75% RH,Glassy material
"Cl.NCc1cc(Oc2cccc(C(=O)N3C[C@@H](O)[C@H](F)C3)c2)nc(C(F)(F)F)c1 [Compound 1, (R,R)-trans-(3-((4-(aminomethyl)-6-(trifluoromethyl)pyridin-2-yl)oxy)phenyl)(3-fluoro-4-hydroxypyrrolidin-1-yl)methanone, hydrochloride salt]",IC50,[3],< 300 nM
same,Changes in purity or absorption of moisture,[4]; 3 month accelerated condition (40° C./75% RH),no significant changes
"NCc1cc(Oc2cccc(C(=O)N3C[C@@H](O)[C@H](F)C3)c2)nc(C(F)(F)F)c1 [Compound 2, (R,R)-trans-(3-((4-(aminomethyl)-6-(trifluoromethyl)pyridin-2-yl)oxy)phenyl)(3-fluoro-4-hydroxypyrrolidin-1-yl)methanone, methanesulfonate salt]","All attributes tested (appearance, purity, related substances, chiral purity, moisture, DSC, XRPD)","[4]; 1 month data, long-term and accelerated conditions of 1-year and 2-year ICH studies",within limits
same,"Solid state stability, heat","[5]; solid, 100° C., 24 hours",stable
same,"Solid state stability, light","[5]; solid, light max 365 nm, 24 hours",stable
same,"Solution state stability, heat","[5]; solution, 50° C. for 24 hours",stable
same,Clear Point Temperature,[6]; 5 mg in 1 mL IPA:water 95:5,6.9 °C
same,Clear Point Temperature,[6]; 10 mg in 1 mL IPA:water 95:5,20.3 °C
same,Clear Point Temperature,[6]; 20 mg in 1 mL IPA:water 95:5,37.2 °C
same,Clear Point Temperature,[6]; 30 mg in 1 mL IPA:water 95:5,48.5 °C
same,Cloud Point Temperature,[6]; 30 mg in 1 mL IPA:water 95:5,−7.8 °C
same,Clear Point Temperature,[6]; 40 mg in 1 mL IPA:water 95:5,55.8 °C
same,Cloud Point Temperature,[6]; 40 mg in 1 mL IPA:water 95:5,−1.8 °C
same,Clear Point Temperature,[6]; 60 mg in 1 mL IPA:water 95:5,64 °C
same,Cloud Point Temperature,[6]; 60 mg in 1 mL IPA:water 95:5,14.5 °C
same,Clear Point Temperature,[6]; 70 mg in 1 mL IPA:water 95:5,68.6 °C
same,Cloud Point Temperature,[6]; 70 mg in 1 mL IPA:water 95:5,24.7 °C
"NCc1cc(Oc2cccc(C(=O)N3C[C@@H](O)[C@H](F)C3)c2)nc(C(F)(F)F)c1 [Compound I, (R,R)-trans-(3-((4-(aminomethyl)-6-(trifluoromethyl)pyridin-2-yl)oxy)phenyl)(3-fluoro-4-hydroxypyrrolidin-1-yl)methanone]",solubility at 10 min,[7]; 2-Propanol,> 100 mg/mL
same,solubility at 10 min,[7]; Acetonitrile,> 100 mg/mL
same,solubility at 10 min,[7]; Dichloromethane,> 100 mg/mL
same,solubility at 10 min,[7]; Ethanol,> 100 mg/mL
same,solubility at 10 min,[7]; Ethyl Acetate,> 100 mg/mL
same,solubility at 10 min,[7]; Hexane,> 100 mg/mL
same,solubility at 10 min,[7]; Tetrahydrofuran,> 100 mg/mL
same,solubility at 10 min,"[7]; Toluene, up to 50 vol",> 20 mg/mL
same,"Potency relative to the (S,S)-isomer",[8],less than 2 fold
Cl.NCc1cc(Oc2cccc(C(=O)N3C[C@@H](O)[C@H](F)C3)c2)nc(C(F)(F)F)c1 [Form 1 of Compound 1],Solubility in maturation solvents,[1],insoluble
same,Behaviour on storage,"[2]; 40° C. and 75% RH, after 24 hours",deliquescing
same,Form change on storage,[2]; 40° C./75% RH for one week,transforms to Form 2
same,"7 days storage @ 40° C./75% RH, appearance",[2]; 40° C./75% RH,Waxy/glassy solid +
same,"7 days storage @ 40° C./75% RH, resulting XRPD form",[2]; 40° C./75% RH,particles - Form 2
same,Hygroscopicity,[9],hygroscopic solid; also recorded: hygroscopic form
same,solubility,[10],≥ 1000 mg/mL
CS(=O)(=O)O.NCc1cc(Oc2cccc(C(=O)N3C[C@@H](O)[C@H](F)C3)c2)nc(C(F)(F)F)c1 [Form 1 of Compound 2],solubility,"[11]; aqueous medium, pH 2, aqueous buffer, read-out: Aqueous Solubility",> 107 mg/mL
same,solubility,"[11]; aqueous medium, pH 7.4, aqueous buffer, read-out: Aqueous Solubility",> 107 mg/mL
same,solubility,"[11]; aqueous medium, pH 10, aqueous buffer, read-out: Aqueous Solubility",> 85 mg/mL
same,solubility,"[11]; ethanol, organic solvent or mixture, EtOH, read-out: Organic Solubility, Qualitative Solubility",~15 mg/mL
same,solubility,"[11]; ethanol/water (90:10), isopropanol/water (90:10), organic solvent or mixture, read-out: Organic Solubility, Qualitative Solubility",~50 mg/mL
same,solubility,"[11]; methanol, tetrahydrofuran/water (90:10), organic solvent or mixture, read-out: Organic Solubility, Qualitative Solubility",~100 mg/mL
same,solubility,"[11]; organic solvent or mixture, isopropyl acetate, isopropanol, methyl-ethyl ketone, acetone, ethanol, methyl-t-butyl ether, 1,4 dioxane, toluene, tetrahydrofuran, dichloromethane, acetonitrile, read-out: Organic Solubility, Qualitative Solubility",≤ 10 mg/mL
same,solubility,"[11]; water, dimethyl sulfoxide, read-out: Organic Solubility, Qualitative Solubility",> 200 mg/mL
same,XRPD after the GVS analysis,[12],X-ray powder diffraction (XRPD): Unchanged
same,Polymorph stability on storage,[2]; 7 days at 40° C./75% RH and 25° C./97% RH,"Form 1, which is stable for 7 days at 40° C./75% RH and 25° C./97%"
Cl.NCc1cc(Oc2cccc(C(=O)N3C[C@@H](O)[C@H](F)C3)c2)nc(C(F)(F)F)c1 [Form 2 of Compound 1],"7 days storage @ 40° C./75% RH, appearance",[2]; 40° C./75% RH,Waxy/glassy solid +
same,"7 days storage @ 40° C./75% RH, resulting XRPD form",[2]; 40° C./75% RH,particles - Form 2
same,Physical change over time,[2]; over time,converts over time to a waxy solid
same,Behaviour on storage,[2]; storage conditions (40° C. and 75% RH) for 1 week,remained unchanged
same,Thermal stability,[9],thermally stable
CS(=O)(=O)O.NCc1cc(Oc2cccc(C(=O)N3C[C@@H](O)[C@H](F)C3)c2)nc(C(F)(F)F)c1 [Form 2 of Compound 2],Form change after GVS and storage,[2]; after GVS analysis and 7 days at 40° C./75% RH,phase transformation towards Form 1
same,Form conversion in humidity,[2]; in humidity,converts to Form 1
same,Form change on storage,[9]; 7 days at 25° C./97% RH,change also occurs
CS(=O)(=O)O.NCc1cc(Oc2cccc(C(=O)N3C[C@@H](O)[C@H](F)C3)c2)nc(C(F)(F)F)c1 [Form 3 of Compound 2],XRPD change on heating and storage,[2]; heating to 130° C. and upon the storage conditions,changed to Form 1
